In patent US20260345609A1, “METHODS FOR PROMOTING PERSISTENCE OF CELL THERAPY” (Legend Biotech Ireland Limited, priority 2022, published 2026):

What was measured:
Type in all cases: cell-based, human
[1] = test system: CAR-γδT cells; assay: Effect of MTX concentration on proliferation of CAR-γδT cells in vitro (AOPI counting)
Procedure: 50 mL of fresh peripheral blood of volunteers was extracted, mixed with lymphocyte separation medium, and then peripheral blood mononuclear cells (PBMC) were separated by density gradient centrifugation. The isolated lymphocytes were overnight cultured in RPMI 1640 medium, supplemented with L-glutamine (2 mM, Sigma-Aldrich), penicillin (100 IU/mL)/streptomycin (100 μg/mL) (Sigma-Aldrich, Missouri, USA), 10% serum (Gibco, Massachusetts, USA), zoledronic acid (5 μM, Actavis, New Jersey, USA), IL-2 (100 IU/mL; Aldesleukin, Novartis, Frimley, UK). The γδT cells selected above were transduced with lentiviral vector expressing an anti-CLL1 CAR and DHFR L22F/F31S at a multiplicity of infection (MOI) of 5. After 48 hours of transduction, IL-2 (100 IU/mL) was added every 2-3 days to expand T cells expressing the anti-CLL1 CAR (hereinafter referred to as CAR-γδT cells).
Cultured with the addition of methotrexate (MTX) at the concentrations of 0 μM, 0.01 μM, 0.05 μM, 0.1 μM, 1 μM, or 2 μM, the cell number of LUCAR-20SD cells at day0 day3 day6 day9, day 12, and the cell number of CAR-γδT cells at day0 day2 day5 day7 were counted by AOPI. Cell proliferation curves were plotted separately.

[2] = test system: untransduced T cells (UnT); assay: In vitro mixed lymphoid (MLR) model with LUCAR-20SD cells, UnT and Raji cells: host UnT cells; conditions: 0.05 μM, 1 μM, 2 μM MTX
Procedure: To evaluate the ability of LUCAR-20SD cells to tolerate allogeneic T cell rejection, an in vitro mixed lymphoid (MLR) model was established.
Using the T cells from a random healthy donor (B donor), LUCAR-20SD cells were prepared following the method in Example 1, as the graft cells. Un-transduced T cells (UnT) from another random healthy donor (Adonor) were also prepared, as the host cells.
The cell density of CD20 positive cells (lymphoma cell lines Raji, ATCC, CCL-86) was adjusted to 1×10^6 cells/mL. Raji cells were treated with 20 μg/mL mitomycin at 37° C. for 3 h, washed three times with 10 mL DPBS, and were resuspended in the culture medium. 20×10^6 untransduced T cells (UnT, T cell donor A), 1×10^6 LUCAR-20SD cells (T cell donor B), and 5×10^6 treated lymphoma cells Raji were mixed and cultured in the medium. The cell mixture was divided into 4 groups, and 0 μM MTX, 0.05 μM MTX, 1 μM MTX, or 2 μM MTX was added, respectively. […] According to the formula: fold change of cell number (UnT)=[cell number counted by AOPI×(CAR-CD5+%)]/20, fold change of cell number (LUCAR-20SD cells)=[cell number counted by AOPI×(CAR+CD5+%)]/1, the cell proliferation curves of UnT and LUCAR-20SD cells were plotted.

[3] = test system: untransduced T cells (UnT); assay: In vitro mixed lymphoid (MLR) model with CAR-γδT cells, UnT and U937 cells: host UnT cells; conditions: 0.05 μM and 0.5 μM MTX; mixed culture with CAR-γδT and U937 cells
Procedure: To evaluate the ability of γδ T cells to tolerate allogeneic T cell rejection, an in vitro mixed lymphoid (MLR) model was established.
Using the T cells from a random healthy donor (B donor), CAR-γδT cells were prepared following the method in Example 1, as the graft cells. Un-transduced T cells (UnT) from another random healthy donor (T cell donor A) were also prepared, as the host cells.
The density of CLL1 positive human lymphoma cells (U937) was adjusted to 1×10^6 cells/mL. U937 cells were treated with 20 μg/mL mitomycin at 37° C. for 3 h, washed three times with 10 mL DPBS, and suspended in the culture medium. 20×10^6 untransduced T cells (UnT, T cell donor A), 1×10^6 CAR-γδT cells (T cell donor B), and 5×10^6 treated human lymphoma cells U937 were mixed and cultured in the medium. The cell mixture was divided into 3 groups, and 0 μM, 0.05 μM MTX, or 0.5 μM MTX was added, respectively. […] CAR-γδT cells were stimulated repeatedly with U937 cells at day0, day4, day7 at an E/T ratio of 1:1 According to the formula: fold change of cell number (UnT)=[cell number counted by AOPI×(CD3-/TCR VY9+%)]/20, fold change of cell number (CAR-γδT)=[cell number counted by AOPI×(CD3+/TCR Vγ9+%)]/1, the cell proliferation curves of UnT and CAR-γδT cells were plotted.

CN(Cc1cnc2nc(N)nc(N)c2n1)c1ccc(C(=O)N[C@@H](CCC(=O)O)C(=O)O)cc1 [MTX, methotrexate]
proliferation of CAR-γδT cells compared with 0 μM MTX ([1]; 0.01 μM to 0.1 μM MTX, day 7, p>0.05): not significantly different | proliferation of CAR-γδT cells compared with 0 μM MTX ([1]; 1 μM MTX and 2 μM MTX, day 7, p<0.05, dose-dependent): significantly decreased | minimal effective concentration ([1]; Homo sapiens, 168 h, day 7, read-out: MTX concentration that affects the proliferation of CAR-γδT cells): ≥ 1 µM | fold change of cell number (UnT) ([2]; day 1 to day 13): less than 1 | proliferation of UnT cells ([2]; mixed culture with LUCAR-20SD and Raji cells): significantly inhibited | proliferation of UnT cells [3]: significantly inhibited
